Data as given in BindingDB's records for doi:10.1021/jm00116a004 (Northeastern University, 1992).

Assays:
[1] = target: D(2) dopamine receptor (Sus scrofa); experiment: The compound was evaluated for the binding affinity towards dopamine receptor D2 at high affinity state.
[2] = target: D(1A) dopamine receptor (Canis familiaris); experiment: The compound was evaluated for the dissociation constant for inhibiting the binding of [3H]-SCH- 23390 at dopamine receptor D1
[3] = target: D(2) dopamine receptor (Sus scrofa); experiment: The compound was evaluated for the binding affinity towards Dopamine receptor D2 at low affinity state.
[4] = target: D(2) dopamine receptor (Sus scrofa); experiment: The compound was evaluated for the binding affinity towards Dopamine receptor D2 at high affinity state.
[5] = target: D(1A) dopamine receptor (Canis familiaris); experiment: The compound was evaluated for the dissociation constant for inhibiting the binding of [3H]-SCH- 23390 at Dopamine receptor D1

Ki [1] | Ki [2] | Ki [3] | Ki [4] | Ki [5] | SMILES
0.49 µM | 0.0012 µM | – | – | – | CN1CCc2c(cc(O)c(O)c2Br)C(c2ccccc2)C1 (configuration not stated)
0.077 µM | 0.0009 µM | – | – | – | CN1CCc2c(cc(O)c(O)c2Cl)C(c2ccccc2)C1 (configuration not stated)
– | – | 2 µM | 0.039 µM | 0.012 µM | Oc1cc2c(c(Br)c1O)CCNCC2c1ccccc1 (configuration not stated)
